Assay results taken from US20210290676A1, “IMPROVING THE EFFICACY AND SAFETY OF ADOPTIVE CELLULAR THERAPIES” (University of Southern California, priority 2018, published 2021).

How the values were obtained:
Assay type in all cases: cell-based, human
[1] = tested on: Pgp+ (DiOC2(3)-dye effluxing) T cells; experiment: DiOC2(3) dye efflux flow cytometry of inhibitor-treated T cells; conditions: treatment for 13 days, IL2 + CD3 and CD28 antibodies
Protocol: (§1) The use of P-glycoprotein (Pgp)-mediated efflux of DiOC2(3) to isolate stem like T cells for adoptive cellular therapy has been described in application no. […] In the following examples, DiOC2(3) staining was used to study the effect of different inhibitors on generation of stem like T cells.
(§2) DAY 0: Blood was obtained from unidentified donor. After RBC lysis, PBMC were collected using Ficoll-Hypaque separation. […] T cells were cultured in three different conditions: • 1. XVIVO 15 medium (Lonza) with IL2 50 IU/ml, CD3 antibody (30 ng/ml) and CD28 antibody (30 ng/ml). • 2. XVIVO 15 medium (Lonza) with CD3 antibody (30 ng/ml) and CD28 antibody (30 ng/ml). • 3. XVIVO 15 medium (Lonza) with IL2 50 IU/ml DAY 1: Cells were plated in a 6-well plate at a density of 1 million cells in 2 ml/of media (as described above) and treated with different inhibitors
(§3) The cell growth medium was changed in 6-well plates and fresh drugs were added at same concentration for one more week.
(§4) […] (DAY 11): Culture medium was changed and fresh drugs were added in 6-well plates.
(§5) Subsequently, cells were washed with RPMI medium and dye was effluxed at 37° C. for 90 min. Cells were washed with […], stained with CD62L-APC (5 μl/100 μl/sample) at 4° C. for 1 h, washed twice with PBS+1% FBS and analyzed on flow cytometer to check if these drugs treatment leads to increase in Pgp+/CD62L positive population.
(§6) Day 0: Blood was obtained from unidentified donor. After RBC lysis, PBMC were collected using Ficoll-Hypaque separation. 200 million T cells were isolated from PBMCs using CD3 microbeads. T cells were cultured overnight in XVIVO 15 medium (Lonza) with IL2 (50 IU/ml), 30 ng/ml of CD3 and CD28 antibodies
(§7) Day 1: Cells were plated in 24-well plates at a density of 0.3 million cells/ml in each well and treated with different drugs.
(§8) On day 7, culture medium was replaced with fresh medium with fresh drugs.
(§9) On day 13, culture medium was replaced with fresh medium and fresh drugs. Half of the cells were transferred to 6-well plates.
(§10) Day 14: An aliquot of cells with all the treatments listed above (for 13 days) was used to stain the cells with DiOC2(3) (60 ng/ml in RPMI medium) at 4° C. for 40 min, washed with RPMI medium, DiOC2(3) dye was effluxed at 37° C. for 90 min, washed with PBS+1% FBS, stained with CD62L-APC antibody. CD62L is a marker for resting T cells. (5 μl/100 μl/sample) at 4° C. for 1 h, washed twice with PBS+1% FBS and analyzed on flow cytometer to check if these drugs are affecting the dye-effluxing or Pgp+ (i.e., DiOC2(3)-dull) T-cell population.

[2] = tested on: Pgp+ (DiOC2(3)-dye effluxing cells) and CD62L+ T cells; experiment: DiOC2(3) dye efflux plus CD62L-APC staining, flow cytometry of inhibitor-treated T cells; conditions: treatment for 13 days, IL2 + CD3 and CD28 antibodies
Protocol: as §1, §2, §3, §4, §5, §6, §7, §8, §9, §10

[3] = tested on: CD8+CD45RA+CCR7+CD62L+ T cells; experiment: Flow cytometry for CD8, CD45RA, CCR7 and CD62L on inhibitor-treated T cells; conditions: cells cultured for 14 days
Protocol: as §2
(§11) A second aliquot of the cells cultured for 13 days with all the treatments listed above (1-21) was washed with PBS+1% FBS, stained with CD8-PerCP, CD45RA-FITC, CCR7-PE and CD62L-APC (5% Y/100 μl/sample for each of 4 antibodies) at 4° C. for 1 h, washed twice with PBS+100 FBS and analyzed on flow cytometer to check if these drugs are enriching T stem cells showing surface expression of CD8+CD45RA+CCR7+CD62L+.
as §6, §7, §8, §9
as §11, with “14” for “13”, “above” for “above (1-21)”, “(5 ul/100 ul/sample” for “(5% Y/100 μl/sample”, “PBS+1%” for “PBS+100”, “enriching for” for “enriching”, “T” for “T stem”

[4] = tested on: CD45RA+CCR7+CD62L+ T cells; experiment: Flow cytometry for CD45RA, CCR7 and CD62L on inhibitor-treated T cells (all T cells); conditions: cells cultured for 14 days
Protocol: as §2, §11, §6, §7, §8, §9
as §11, with “14” for “13”, “above” for “above (1-21)”, “(5 ul/100 ul/sample” for “(5% Y/100 μl/sample”, “PBS+1%” for “PBS+100”, “enriching for” for “enriching”, “T” for “T stem”

CCN(c1cc(C#CCN2CCOCC2)cc(C(=O)NCc2c(C)cc(C)[nH]c2=O)c1C)[C@H]1CC[C@H](N(C)CCOC)CC1 [EPZ011989]
p2: pgp+ from Live cells ([1]; 500 nM): 64.39 | p2: pgp+ from Live cells ([1]; 1 μM): 62.54 | p5: double +ve pgp+ and CD62L-APC+ from Live cells ([2]; 500 nM): 18.77 | p5: double +ve pgp+ and CD62L-APC+ from Live cells ([2]; 1 μM): 16.8 | GATE P4 CD8(PerCP)+, CD45RA(FITC)+, CCR7 (PE)+, CD62L(APC) ([3]; 500 nM): 70.63% | GATE P4 CD8(PerCP)+, CD45RA(FITC)+, CCR7 (PE)+, CD62L(APC) ([3]; 1 μM): 72.83% | GATE P6 CD45RA(FITC)+, CCR7 (PE)+, CD62L(APC) ([4]; 500 nM): 57.62% | GATE P6 CD45RA(FITC)+, CCR7 (PE)+, CD62L(APC) ([4]; 1 μM): 58.31%

CCN(c1cc(-c2ccc(CN3CCOCC3)cc2)cc(C(=O)NCc2c(C)cc(C)[nH]c2=O)c1C)C1CCOCC1 [TAZE]
p2: pgp+ from Live cells ([1]; 100 nM): 42.9 | p5: double +ve pgp+ and CD62L-APC+ from Live cells ([2]; 100 nM): 14.5 | GATE P4 CD8(PerCP)+, CD45RA(FITC)+, CCR7 (PE)+, CD62L(APC) ([3]; 100 nM): 59.72% | GATE P6 CD45RA(FITC)+, CCR7 (PE)+, CD62L(APC) ([4]; 100 nM): 52.24%

BI7273
p2: pgp+ from Live cells ([1]; 100 nM): 16.69 | p2: pgp+ from Live cells ([1]; 500 nM): 16.34 | p5: double +ve pgp+ and CD62L-APC+ from Live cells ([2]; 100 nM): 2.73 | p5: double +ve pgp+ and CD62L-APC+ from Live cells ([2]; 500 nM): 2.38 | GATE P4 CD8(PerCP)+, CD45RA(FITC)+, CCR7 (PE)+, CD62L(APC) ([3]; 100 nM): 70.33% | GATE P4 CD8(PerCP)+, CD45RA(FITC)+, CCR7 (PE)+, CD62L(APC) ([3]; 500 nM): 77.81% | GATE P6 CD45RA(FITC)+, CCR7 (PE)+, CD62L(APC) ([4]; 100 nM): 57.15% | GATE P6 CD45RA(FITC)+, CCR7 (PE)+, CD62L(APC) ([4]; 500 nM): 61.86%

COc1cc(-c2cn(C)c(=O)c3cnccc23)c(OC)cc1CN(C)C [B9564]
p2: pgp+ from Live cells ([1]; 100 nM): 13.39 | p2: pgp+ from Live cells ([1]; 500 nM): 15.56 | p5: double +ve pgp+ and CD62L-APC+ from Live cells ([2]; 100 nM): 2.53 | p5: double +ve pgp+ and CD62L-APC+ from Live cells ([2]; 500 nM): 3.03 | GATE P4 CD8(PerCP)+, CD45RA(FITC)+, CCR7 (PE)+, CD62L(APC) ([3]; 100 nM): 73.18% | GATE P4 CD8(PerCP)+, CD45RA(FITC)+, CCR7 (PE)+, CD62L(APC) ([3]; 500 nM): 83.31% | GATE P6 CD45RA(FITC)+, CCR7 (PE)+, CD62L(APC) ([4]; 100 nM): 63.27% | GATE P6 CD45RA(FITC)+, CCR7 (PE)+, CD62L(APC) ([4]; 500 nM): 73.75%

CCc1sc(N)nc1-c1ccc(OC)cc1 [CBFB]
p2: pgp+ from Live cells ([1]; 500 nM): 16.01 | p2: pgp+ from Live cells ([1]; 1 μM): 20.93 | p5: double +ve pgp+ and CD62L-APC+ from Live cells ([2]; 500 nM): 2.85 | p5: double +ve pgp+ and CD62L-APC+ from Live cells ([2]; 1 μM): 3.56 | GATE P4 CD8(PerCP)+, CD45RA(FITC)+, CCR7 (PE)+, CD62L(APC) ([3]; 500 nM): 74.77% | GATE P4 CD8(PerCP)+, CD45RA(FITC)+, CCR7 (PE)+, CD62L(APC) ([3]; 1 μM): 74.12% | GATE P6 CD45RA(FITC)+, CCR7 (PE)+, CD62L(APC) ([4]; 500 nM): 64.71% | GATE P6 CD45RA(FITC)+, CCR7 (PE)+, CD62L(APC) ([4]; 1 μM): 65.61%

COc1cc(C)[nH]c(=O)c1CNC(=O)c1c(C)n([C@H](C)C2CCOCC2)c2ccccc12 [CPI360]
p2: pgp+ from Live cells ([1]; 100 nM): 25.15 | p2: pgp+ from Live cells ([1]; 500 (unit not given)): 35.55 | p5: double +ve pgp+ and CD62L-APC+ from Live cells ([2]; 100 nM): 5.82 | p5: double +ve pgp+ and CD62L-APC+ from Live cells ([2]; 500 (unit not given)): 11.11 | GATE P4 CD8(PerCP)+, CD45RA(FITC)+, CCR7 (PE)+, CD62L(APC) ([3]; 100 nM): 81.01% | GATE P4 CD8(PerCP)+, CD45RA(FITC)+, CCR7 (PE)+, CD62L(APC) ([3]; 500 nM): 81.26% | GATE P6 CD45RA(FITC)+, CCR7 (PE)+, CD62L(APC) ([4]; 100 nM): 70.85% | GATE P6 CD45RA(FITC)+, CCR7 (PE)+, CD62L(APC) ([4]; 500 nM): 69.62%

Cc1ccc(Cl)c(Nc2ccccc2C(=O)O)c1Cl [MECLO]
p2: pgp+ from Live cells ([1]; 100 nM): 22.22 | p2: pgp+ from Live cells ([1]; 500 nM): 20.11 | p5: double +ve pgp+ and CD62L-APC+ from Live cells ([2]; 100 nM): 3.74 | p5: double +ve pgp+ and CD62L-APC+ from Live cells ([2]; 500 nM): 3.72 | GATE P4 CD8(PerCP)+, CD45RA(FITC)+, CCR7 (PE)+, CD62L(APC) ([3]; 100 nM): 57.65% | GATE P4 CD8(PerCP)+, CD45RA(FITC)+, CCR7 (PE)+, CD62L(APC) ([3]; 500 nM): 75.78% | GATE P6 CD45RA(FITC)+, CCR7 (PE)+, CD62L(APC) ([4]; 100 nM): 53.02% | GATE P6 CD45RA(FITC)+, CCR7 (PE)+, CD62L(APC) ([4]; 500 nM): 66.64%
